Seven compounds from US20230286973A1, “PROTEIN SECRETION INHIBITORS” (KEZAR LIFE SCIENCES, priority 2020, published 2023) can be followed below.

Series [1] deals with PD1-ss+10aa/Gaussia Luciferase. In words: Dox-Induced PD1-ss-Gluc Assay. The conditions noted are these: 24 hr Dox induction; 293FRT/TO cells; read-out: 24 hr Dox Inducible PD1ssGluc 293FRT/TO: Mean IC50. The class given is cell-based. In short, it runs like this: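 Flp-In 293 T-REx, stable line; Tet-regulated PD1-ss+10aa fused to Gaussia luciferase; plated day prior; cpd + doxycycline in DMSO/media; 37 °C, 5% CO2.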

The subject of series [2] is TNFα-FL/Gaussia Luciferase. The series can be described thus: Dox Induced TNFα-FL-Gluc Assay. The conditions noted are these: for IC50: 24 hr Dox induction, 293FRT/TO cells, read-out: 24 hr Dox Inducible TNFaFLGluc 293FRT/TO: Mean IC50; for 24 hr Dox Inducible TNFaFLGluc 293FRT/TO: TNF/PD1: ratio of TNFaFLGluc IC50 to PD1ssGluc IC50. The class given is cell-based. In short, it runs like this:
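Cells are seeded one day ahead, then treated with compound plus doxycycline at 37 °C, 5% CO2. The stable Flp-In 293 T-REx line expresses full-length TNFα (amino acids 1-233) with Gaussia luciferase fused to its 3′ end, inducibly via T-REx.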

In series [3] the test system is HER3-ss+4aa/Gaussia Luciferase. The series can be described thus: Dox-Induced Her3-ss-Gluc Assay. Format: cell-based. The conditions noted are these: 24 hr Dox induction; 293FRT/TO cells; read-out: 24 hr Dox Inducible Her3(ss + 4)Gluc 293FRT/TO: Mean IC50. In short, it runs like this:
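Expression of a Gaussia luciferase reporter carrying the HER3 signal sequence plus 4 amino acids is induced by doxycycline in stably transfected Flp-In 293 T-REx cells. Compounds are added with doxycycline at 37° C., 5% CO2. Undefined stereocentres denote stereoisomer mixtures.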

In series [4] the test system is IL-2-FL/Gaussia Luciferase. The series can be described thus: Dox Induced IL2-FL-Gluc Assay. Particulars: for IC50: 24 hr Dox induction, 293FRT/TO cells, read-out: 24 hr Dox Inducible IL2FLGluc 293FRT/TO: Mean IC50; for 24 hr Dox Inducible IL2FLGluc 293FRT/TO: IL2/PD1: ratio of IL2FLGluc IC50 to PD1ssGluc IC50. The class given is cell-based. In short, it runs like this:
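Reporter is Gaussia luciferase fused to the 3′ end of full-length IL-2 (aa 1-153), expressed from a doxycycline-inducible T-REx construct in stably selected Flp-In 293 cells. Compounds were co-added with doxycycline and incubated at 37° C, 5% CO2.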

Series [5] has as its system multiple myeloma cell line NCI-H929. In words: H929 Cell Viability Assay. Format: cell-based, human. Particulars: Homo sapiens, NCI-H929, 48 h, NCI-H929 cells, Celltiter-Glo. In short, it runs like this:
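Plate the myeloma cells in RPMI 1640 with 10% FBS, add serially diluted compound, incubate for 48 hours at 37° C, then add CellTiter-Glo and read luciferase signal.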
A general note: In ATP-based viability assays light output follows the ATP content of the culture.

For series [6], the system named is multiple myeloma cell line U266B1. The series can be described thus: U266 Cell Viability Assay. The conditions noted are these: Homo sapiens, U-266, 48 h, U266B1 cells, Celltiter-Glo. Format: cell-based, human. In short, it runs like this: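 48 h treatment, 37° C./5% CO2, RPMI 1640 + 10% FBS; viability by CellTiter-Glo luminescence.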
Series [7] can be described thus: Liver Microsome Stability Assay (rat). Particulars: rat liver microsomes, with NADPH, 1.0 uM compound. A general note: Microsomes from liver hold many membrane-bound enzymes, among them those of drug oxidation.
Protocol: (§1) Stability of a compound was assessed in the presence of liver microsomes from various sources—mouse, rat, monkey and human liver microsomes. 1.0 uM compound, 0.4% DMSO in 0.1 M Potassium Phosphate with 1.0 mg/mL liver microsomes, were incubated at 37° C. with or without 1 mM NADPH. The samples were quenched at 0, and 30 minutes.
Series [8] is described as follows: Liver Microsome Stability Assay (mouse). Particulars: mouse liver microsomes, with NADPH, 1.0 uM compound.
Protocol: as §1
A short description of series [9]: Liver Microsome Stability Assay (human). The conditions noted are these: human liver microsomes, with NADPH, 1.0 uM compound.
Protocol: as §1
A short description of series [10]: Liver Microsome Stability Assay (monkey). Particulars: monkey liver microsomes, with NADPH, 1.0 uM compound.
Protocol: as §1

Molecules are shown by their SMILES. A value given as a limit tells only on which side of the number the result lay.

By EC50 is commonly meant the concentration at which the effect is half-maximal. As to `O=C(Nc1nc(-c2ccccc2-c2ccccn2)cs1)c1cccn1Cc1ccnc(F)c1` [Compound A168, 1-((2-fluoropyridin-4-yl)methyl)-N-(4-(2-(pyridin-2-yl)phenyl)thiazol-2-yl)-1H-pyrrole-2-carboxamide], the IC50 in [1] turned out to be 0.035 µM; in series [2] it was 0.569 µM; in [3], 0.0605 µM; in series [4], 0.0537 µM. The “24 hr Dox Inducible TNFaFLGluc 293FRT/TO: TNF/PD1” value in [2] is reported as 16.3. Also, in [4], the “24 hr Dox Inducible IL2FLGluc 293FRT/TO: IL2/PD1” value came out at 1.5. Also, the EC50 in series [5] was 2.71 µM; in series [6] it was greater than 25 µM. Besides, the “Liver Microsome Stability (Multiple Species): Rat - % Remaining after 30 min w/NADPH” value in [7] worked out at 0.52%. Moreover, in [8], the “Liver Microsome Stability (Multiple Species): Mouse - % Remaining after 30 min w/NADPH” value is on record as 0.09%. Moreover, the “Liver Microsome Stability (Multiple Species): Human - % Remaining after 30 min w/NADPH” value in series [9] amounted to 0.45%. In addition, in [10], the “Liver Microsome Stability (Multiple Species): Monkey - % Remaining after 30 min w/NADPH” value was determined as 0.02%.

For the compound `CC(C)n1cnc(-c2ccccc2-c2csc(NC(=O)c3cccn3Cc3ccnc(F)c3)n2)c1` [Compound A169, 1-((2-fluoropyridin-4-yl)methyl)-N-(4-(2-(1-isopropyl-1H-imidazol-4-yl)phenyl)thiazol-2-yl)-1H-pyrrole-2-carboxamide], the IC50 in [1] turned out to be 0.967 µM; in [2], 6.9 µM; in [3], 1.64 µM; in series [4] it was 2.17 µM. In series [2], the “24 hr Dox Inducible TNFaFLGluc 293FRT/TO: TNF/PD1” value was 7.13. Also, in [4], the “24 hr Dox Inducible IL2FLGluc 293FRT/TO: IL2/PD1” value stood at 2.2. In addition, the EC50 in [5] was 7.81 µM; in series [6] it was 15 µM. Also, the “Liver Microsome Stability (Multiple Species): Rat - % Remaining after 30 min w/NADPH” value in [7] is reported as 0.02%. The “Liver Microsome Stability (Multiple Species): Mouse - % Remaining after 30 min w/NADPH” value in series [8] is listed as 0.08%. The “Liver Microsome Stability (Multiple Species): Human - % Remaining after 30 min w/NADPH” value in series [9] amounted to 0.17%. Besides, the “Liver Microsome Stability (Multiple Species): Monkey - % Remaining after 30 min w/NADPH” value in series [10] amounted to 0.11%.

In the case of `O=C(Nc1nc([C@H]2CCCN2c2ccc(OC3CCSCC3)cc2)cs1)c1cccn1Cc1ccnc(F)c1` [Compound A170, (R)-1-((2-fluoropyridin-4-yl)methyl)-N-(4-(1-(4-((tetrahydro-2H-thiopyran-4-yl)oxy)phenyl)pyrrolidin-2-yl)thiazol-2-yl)-1H-pyrrole-2-carboxamide], the IC50 came to 0.0683 µM in [1], 0.687 µM in series [2], 0.0811 µM in [3] and 0.0834 µM in series [4]. In addition, the “24 hr Dox Inducible TNFaFLGluc 293FRT/TO: TNF/PD1” value in series [2] worked out at 10.1. Also, the “24 hr Dox Inducible IL2FLGluc 293FRT/TO: IL2/PD1” value in series [4] amounted to 1.2. The results for the EC50 in series [5] and in series [6] were 5.71 µM and greater than 25 µM, respectively. Besides, the “Liver Microsome Stability (Multiple Species): Rat - % Remaining after 30 min w/NADPH” value in series [7] was found to be 2.02%. In series [8], the “Liver Microsome Stability (Multiple Species): Mouse - % Remaining after 30 min w/NADPH” value was 1.37%. Also, in [9], the “Liver Microsome Stability (Multiple Species): Human - % Remaining after 30 min w/NADPH” value is 0.58%. Further, the “Liver Microsome Stability (Multiple Species): Monkey - % Remaining after 30 min w/NADPH” value in series [10] was 2.6%.

`O=C(Nc1ccc(N2CCC[C@@H]2c2csc(NC(=O)c3cccn3Cc3ccnc(F)c3)n2)cc1)O[C@@H]1CCOC1` [Compound A171, (R)-tetrahydrofuran-3-yl (4-((R)-2-(2-(1-((2-fluoropyridin-4-yl)methyl)-1H-pyrrole-2-carboxamido)thiazol-4-yl)pyrrolidin-1-yl)phenyl)carbamate]: the IC50 worked out at 0.00357 µM in series [1], 0.0719 µM in [2], 0.00433 µM in series [3] and 0.00654 µM in series [4]. Besides, in [2], the “24 hr Dox Inducible TNFaFLGluc 293FRT/TO: TNF/PD1” value is recorded as 20.1. Besides, the “24 hr Dox Inducible IL2FLGluc 293FRT/TO: IL2/PD1” value in series [4] was determined as 1.8. Further, the values for the EC50 in series [5] and in [6] were 0.159 µM and greater than 25 µM, respectively. Besides, the “Liver Microsome Stability (Multiple Species): Rat - % Remaining after 30 min w/NADPH” value in [7] stood at 16%. In [8], the “Liver Microsome Stability (Multiple Species): Mouse - % Remaining after 30 min w/NADPH” value was found to be 17.3%. The “Liver Microsome Stability (Multiple Species): Human - % Remaining after 30 min w/NADPH” value in series [9] was 36.8%. For the same compound, the “Liver Microsome Stability (Multiple Species): Monkey - % Remaining after 30 min w/NADPH” value in series [10] turned out to be 28.5%.

Consider `COC(=O)Nc1ccc(N2CCC[C@@H]2c2csc(NC(=O)c3cc(C)cn3Cc3ccnc(F)c3)n2)cc1` [Compound A172, methyl (R)-(4-(2-(2-(1-((2-fluoropyridin-4-yl)methyl)-4-methyl-1H-pyrrole-2-carboxamido)thiazol-4-yl)pyrrolidin-1-yl)phenyl)carbamate], for which the IC50 amounted to 0.00266 µM in [1], 0.0504 µM in [2], 0.00518 µM in series [3] and 0.00599 µM in series [4]. For the same compound, the “24 hr Dox Inducible TNFaFLGluc 293FRT/TO: TNF/PD1” value in [2] was found to be 19. For the same compound, the “24 hr Dox Inducible IL2FLGluc 293FRT/TO: IL2/PD1” value in series [4] worked out at 2.3. Also, the EC50 was 0.19 µM in [5] and greater than 25 µM in [6]. Moreover, in series [7], the “Liver Microsome Stability (Multiple Species): Rat - % Remaining after 30 min w/NADPH” value came out at 19.7%. The “Liver Microsome Stability (Multiple Species): Mouse - % Remaining after 30 min w/NADPH” value in series [8] was 44.9%. Besides, the “Liver Microsome Stability (Multiple Species): Human - % Remaining after 30 min w/NADPH” value in series [9] is 65.3%. The “Liver Microsome Stability (Multiple Species): Monkey - % Remaining after 30 min w/NADPH” value in [10] came out at 43.3%.

As to `CN1CC(OC(=O)Nc2ccc(N3CCC[C@@H]3c3csc(NC(=O)c4cccn4Cc4ccnc(F)c4)n3)cc2)C1` [Compound A173, 1-methylazetidin-3-yl (R)-(4-(2-(2-(1-((2-fluoropyridin-4-yl)methyl)-1H-pyrrole-2-carboxamido)thiazol-4-yl)pyrrolidin-1-yl)phenyl)carbamate], the IC50 is 0.0159 µM in series [1], 0.323 µM in series [2], 0.0269 µM in series [3] and 0.0404 µM in [4]. Moreover, the “24 hr Dox Inducible TNFaFLGluc 293FRT/TO: TNF/PD1” value in series [2] was 20.3. The “24 hr Dox Inducible IL2FLGluc 293FRT/TO: IL2/PD1” value in [4] is 2.5. Moreover, the results for the EC50 in series [5] and in [6] were 0.842 µM and 8.75 µM, respectively. The “Liver Microsome Stability (Multiple Species): Rat - % Remaining after 30 min w/NADPH” value in series [7] is 17.4%. In series [8], the “Liver Microsome Stability (Multiple Species): Mouse - % Remaining after 30 min w/NADPH” value is on record as 23.8%. For the same compound, the “Liver Microsome Stability (Multiple Species): Human - % Remaining after 30 min w/NADPH” value in series [9] is 70.3%. In addition, in series [10], the “Liver Microsome Stability (Multiple Species): Monkey - % Remaining after 30 min w/NADPH” value stood at 54.6%.

As to `O=C(Nc1ccc(N2CCC[C@@H]2c2csc(NC(=O)c3cccn3Cc3ccnc(F)c3)n2)cc1)O[C@H]1CCOC1` [Compound A174, (S)-tetrahydrofuran-3-yl (4-((R)-2-(2-(1-((2-fluoropyridin-4-yl)methyl)-1H-pyrrole-2-carboxamido)thiazol-4-yl)pyrrolidin-1-yl)phenyl)carbamate], the IC50 is 0.00262 µM in [1], 0.0811 µM in series [2], 0.00619 µM in series [3] and 0.00801 µM in [4]. Further, in series [2], the “24 hr Dox Inducible TNFaFLGluc 293FRT/TO: TNF/PD1” value worked out at 30.9. The “24 hr Dox Inducible IL2FLGluc 293FRT/TO: IL2/PD1” value in series [4] is 3.1. For the same compound, the EC50 in series [5] was 0.0774 µM; in series [6], greater than 25 µM. The “Liver Microsome Stability (Multiple Species): Rat - % Remaining after 30 min w/NADPH” value in [7] was 42.5%. For the same compound, in series [8], the “Liver Microsome Stability (Multiple Species): Mouse - % Remaining after 30 min w/NADPH” value turned out to be 29.4%. Moreover, the “Liver Microsome Stability (Multiple Species): Human - % Remaining after 30 min w/NADPH” value in series [9] worked out at 38%. Also, the “Liver Microsome Stability (Multiple Species): Monkey - % Remaining after 30 min w/NADPH” value in series [10] was determined as 15.4%.
